Experimental data reported in EP1673354B1, “ARYLINDENOPYRIDINES AND ARYLINDENOPYRIMIDINES AND THEIR USE AS ADENOSINE A2A RECEPTOR ANTAGONISTS” (Ortho-McNeil Pharmaceutical, Inc., priority 2003, dated 2005).

Assays:
C57bl/6 mice = assay: Haloperidol-induced catalepsy study in C57bl/6 mice; assay type: in vivo; details: orally dosed at 10 mg/kg; haloperidol 1.5 mg/kg s.c.; test 1 hour after oral dose
Experimental: Haloperidol-induced catalepsy study in C57bl/6 mice
Mature male C57bl/6 mice (9-12 week old from ACE) were housed two per cage in a rodent room. Room temperature was maintained at 64-79 degrees and humidity at 30-70% and room lighting at 12 hrs light/12 hrs dark cycle. On the study day, mice were transferred to the study room. The mice were injected subcutaneously with haloperidol (Sigma H1512, 1.0 mg/ml made in 0.3% tartaric acid, then diluted to 0.2 mg/ml with saline) or vehicle at 1.5 mg/kg, 7.5ml/kg. The mice were then placed in their home cages with access to water and food. 30 minutes later, the mice were orally dosed with vehicle (0.3% Tween 80 in saline) or compounds at 10 mg/kg, 10 ml/kg (compounds, 1mg/ml, made in 0.3% Tween 80 in saline, sonicated to obtain a uniform suspension). The mice were then placed in their home cages with access to water and food. 1 hour after oral dose, the catalepsy test was performed. A vertical metal-wire grid (1.0 cm squares) was used for the test. The mice were placed on the grid and given a few seconds to settle down and their immobility time was recorded until the mice moved their back paw(s). The mice were removed gently from the grid and put back on the grid and their immobility time was counted again. The measurement was repeated three times. The average of three measurements was used for data analysis.

Adenosine A1 receptor = molecular target: T1, Adenosine A1 receptor (Homo sapiens, UniProt P30542); assay: A1 antagonist function (no method described); assay type: cell-based
T1 sequence (P30542 1-326): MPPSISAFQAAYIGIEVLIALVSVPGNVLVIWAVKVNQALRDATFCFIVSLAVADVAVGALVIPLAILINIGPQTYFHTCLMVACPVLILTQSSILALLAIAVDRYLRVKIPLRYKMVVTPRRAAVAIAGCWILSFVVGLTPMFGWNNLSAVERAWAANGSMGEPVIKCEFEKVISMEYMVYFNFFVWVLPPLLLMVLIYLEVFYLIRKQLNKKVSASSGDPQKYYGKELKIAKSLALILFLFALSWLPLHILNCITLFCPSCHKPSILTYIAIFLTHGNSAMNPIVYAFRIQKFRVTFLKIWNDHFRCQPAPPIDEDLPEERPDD

[1] = molecular target: T2, human A2a adenosine receptor (Homo sapiens, UniProt P29274); assay: Ligand binding assay for adenosine A2a receptor ([3H]CGS21680, HEK293 plasma membrane); details: radioligand [3H]CGS21680, HEK293 membranes, room temperature 2 hours; read-out: Ki (nM) A2a binding
T2 construct: purchased PerkinElmer RB-HA2a; host or cells: HEK293 cell plasma membrane
T2 sequence (P29274 whole entry): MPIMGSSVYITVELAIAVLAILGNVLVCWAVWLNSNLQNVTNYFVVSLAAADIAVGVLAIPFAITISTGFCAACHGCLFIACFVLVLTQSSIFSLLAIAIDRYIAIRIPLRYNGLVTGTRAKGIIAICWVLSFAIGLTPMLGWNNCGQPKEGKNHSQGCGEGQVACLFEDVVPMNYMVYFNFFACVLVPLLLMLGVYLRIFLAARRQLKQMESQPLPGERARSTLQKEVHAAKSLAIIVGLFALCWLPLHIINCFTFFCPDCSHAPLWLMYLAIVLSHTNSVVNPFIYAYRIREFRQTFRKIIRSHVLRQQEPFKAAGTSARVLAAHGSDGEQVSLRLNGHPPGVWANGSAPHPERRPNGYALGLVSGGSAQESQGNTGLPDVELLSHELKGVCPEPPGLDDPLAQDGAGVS
Experimental: Ligand Binding Assay for Adenosine A2a Receptor
Ligand binding assay of adenosine A2a receptor was performed using plasma membrane of HEK293 cells containing human A2a adenosine receptor (PerkinElmer, RB-HA2a) and radioligand [^3H]CGS21680 (PerkinElmer, NET1021). Assay was set up in 96-well polypropylene plate in total volume of 200 µl by sequentially adding 20 µL1:20 diluted membrane, 130 µLassay buffer (50 mM Tris·HCl, pH7.4 10 mM MgCl2, 1 mM EDTA) containing [^3H] […] Nonspecific binding was determined by […] NECA. Reaction was carried out at room temperature for 2 hours before filtering through 96-well GF/C filter plate pre-soaked in 50 mM Tris·HCl, pH7.4 containing 0.3% polyethylenimine. Plates were then washed 5 times with cold 50 mM Tris·HCl, pH7.4, dried and sealed at the bottom. Microscintillation fluid 30 µl was added to each well and the top sealed. Plates were counted on Packard Topcount for [^3H]. Data was analyzed in Microsoft Excel and GraphPad Prism programs.

[2] = molecular target: T3, human adenosine A2a receptors (Homo sapiens, UniProt P29274); assay: Adenosine A2a receptor functional assay, antagonist mode (cAMP-inducible beta-galactosidase reporter, 50 nM NECA); assay type: cell-based; details: CHO-K1 cells, read-out: Ki (nM) A2a antagonist function
T3 construct: expressed in transfected cells; host or cells: CHO-K1 cells with cAMP-inducible beta-galactosidase reporter gene
T3 sequence (P29274 whole entry): as above
Experimental: Adenosine A2a Receptor Functional Assay
CHO-K1 cells overexpressing human adenosine A2a receptors and containing cAMP-inducible beta-galactosidase reporter gene were seeded at 40-50K/well into 96-well tissue culture plates and cultured for two days. On assay day, cells were washed once with 200 µL assay medium (F-12 nutrient mixture/0.1 % BSA). For agonist assay, adenosine A2a receptor agonist NECA was subsequently added and cell incubated at 37°C, 5% CO2 for 5 hrs before stopping reaction. In the case of antagonist assay, cells were incubated with antagonists for 5 minutes at R.T. followed by addition of 50 nM NECA. Cells were then incubated at 37°C, 5% CO2 for 5 hrs before stopping experiments by washing cells with PBS twice. 50 µL 1X lysis buffer (Promega, 5X stock solution, needs to be diluted to 1X before use) was added to each well and plates frozen at -20°C. For β-galactosidase enzyme colorimetric assay, plates were thawed out at room temperature and 50 µL 2X assay buffer (Promega) added to each well. Color was allowed to develop at 37°C for 1 h or until reasonable signal appeared. Reaction was then stopped with 150 µL 1 M sodium carbonate. […] Data was analyzed in Microsoft Excel and GraphPad Prism programs.

| SMILES | Ki (Adenosine A1 receptor) [nM] | Ki [1] [nM] | Ki [2] [nM] | inhibition of haloperidol-induced catalepsy (C57bl/6 mice) [%] |
| --- | --- | --- | --- | --- |
| CN(C)CCN(C)Cc1cccc2c1C(=O)c1c(-c3ccccc3)nc(N)nc1-2 [Compound 49] | 119 | 51.1 | 40.1 | – |
| CN1CCN(Cc2cccc3c2C(=O)c2c(-c4ccccc4)nc(N)nc2-3)CC1 [Compound 50] | 94.2 | 80.1 | 11.3 | – |
| CCN(CC)Cc1cccc2c1C(=O)c1c(-c3ccccc3)nc(N)nc1-2 [Compound 52] | 107 | 94.4 | 18.3 | – |
| Nc1nc(-c2ccccc2)c2c(n1)-c1cccc(CN3CCCCC3)c1C2=O [Compound 53] | 40.8 | 64.2 | 14.2 | – |
| Nc1nc(-c2ccccc2)c2c(n1)-c1cccc(CN3CCCC(CO)C3)c1C2=O (centres unmarked) [Compound 57] | 39.3 | 34 | 15.9 | – |
| Nc1nc(-c2ccccc2)c2c(c1C(=O)O)-c1ccccc1C2=O [Compound 65] | 163 | 575 | 245 | – |
| N#Cc1c(N)nc(-c2cccnc2)c2c1-c1ccccc1C2=O [Compound 68] | 34.8 | 7.59 | 0.73 | – |
| Nc1nc(-c2ccco2)c2c(c1C(=O)O)-c1ccccc1C2=O [Compound 69] | > 1000 | 2260 | 90.2 | – |
| N#Cc1c(N)nc(-c2ncc[nH]2)c2c1-c1ccccc1C2=O [Compound 75] | 78.3 | 23.7 | 1.51 | – |
| CN(C)CCNC(=O)c1c(N)nc(-c2ccco2)c2c1-c1ccccc1C2=O [Compound 76] | > 500 | 33 | 22.1 | – |
| N#Cc1c(N)nc(-c2ccco2)c2c1-c1c(F)c(F)c(F)c(F)c1C2=O [Compound 79] | > 1000 | 8.03 | 12.5 | – |
| CN1CCN(C(=O)c2c(N)nc(-c3ccco3)c3c2-c2ccccc2C3=O)CC1 [Compound 80] | 56 | 69.1 | 15.9 | – |
| CN1CCN(CCCOC(=O)c2c(N)nc(-c3ccccc3)c3c2-c2ccccc2C3=O)CC1 [Compound 83] | 117 | 200 | 74.9 | – |
| CC(C)Cc1nc(N)c(C#N)c2c1C(=O)c1ccccc1-2 [Compound 86] | 39.3 | 244 | > 1000 | – |
| CN(C)CCCOC(=O)c1c(N)nc(-c2ccccc2)c2c1-c1ccccc1C2=O [Compound 87] | > 300 | 98.9 | 39.5 | – |
| Nc1nc(-c2ccccc2)c2c(c1C(=O)OCCN1CCCC1)-c1ccccc1C2=O [Compound 88] | > 300 | 130 | 48.9 | – |
| CN1CCCC1COC(=O)c1c(N)nc(-c2ccccc2)c2c1-c1ccccc1C2=O (centres unmarked) [Compound 90] | > 300 | 202 | 57.7 | – |
| CN(C)CCOC(=O)c1c(N)nc(-c2ccsc2)c2c1-c1ccccc1C2=O [Compound 93] | 104 | 64.1 | 23.6 | – |
| C=CCCc1nc(N)c(C#N)c2c1C(=O)c1ccccc1-2 [Compound 94] | 36 | 49.5 | > 1000 | – |
| N#Cc1c(N)nc(C2CCCCC2)c2c1-c1ccccc1C2=O [Compound 95] | 110 | 338 | > 1000 | – |
| CC(CN(C)C)OC(=O)c1c(N)nc(-c2ccco2)c2c1-c1ccccc1C2=O (centres unmarked) [Compound 96] | 52.5 | 48.5 | 10.1 | – |

Continued, in another order:

| Ki (Adenosine A1 receptor) [nM] | Ki [1] [nM] | Ki [2] [nM] | SMILES | inhibition of haloperidol-induced catalepsy (C57bl/6 mice) [%] |
| --- | --- | --- | --- | --- |
| 0.288 | – | – | Nc1nc(-c2ccco2)c2c(n1)-c1ccccc1C2=O [Compound 3, 2-amino-4-furan-2-yl-indeno[1,2-d]pyrimidin-5-one] | 90 |
| 32.9 | 36.8 | 3.26 | Nc1nc(-c2ccccc2)c2c(n1)-c1cccc(CN3CCOCC3)c1C2=O [Compound 51] | – |
| 19.6 | 40.8 | 3.19 | COC(=O)C1CCCCN1Cc1cccc2c1C(=O)c1c(-c3ccccc3)nc(N)nc1-2 (centres unmarked) [Compound 54] | – |
| 19.9 | 32.8 | 5.84 | CCOC(=O)C1CCCN(Cc2cccc3c2C(=O)c2c(-c4ccccc4)nc(N)nc2-3)C1 (centres unmarked) [Compound 55] | – |
| 25.8 | 25.7 | 6.81 | COC(=O)CN(C)Cc1cccc2c1C(=O)c1c(-c3ccccc3)nc(N)nc1-2 [Compound 56] | – |
| 34.1 | 40.8 | 7.94 | CC(=O)N1CCN(Cc2cccc3c2C(=O)c2c(-c4ccccc4)nc(N)nc2-3)CC1 [Compound 59] | – |
| 4.61 | 13.1 | 0.138 | N#Cc1c(N)nc(-c2ccccc2)c2c1-c1ccccc1C2=O [Compound 64] | – |
| 15.6 | 4.21 | 0.069 | N#Cc1c(N)nc(-c2ccoc2)c2c1-c1ccccc1C2=O [Compound 66] | – |
| 4.37 | 13.4 | 0.618 | N#Cc1c(N)nc(-c2cccc(F)c2)c2c1-c1ccccc1C2=O [Compound 67] | – |
| 2.42 | 17.2 | 3.39 | N#Cc1c(N)nc(-c2ccc(F)cc2)c2c1-c1ccccc1C2=O [Compound 71] | – |
| 6.24 | 12.6 | 2.54 | N#Cc1c(N)nc(-c2cccs2)c2c1-c1ccccc1C2=O [Compound 72] | – |
| 9.7 | 4.92 | 0.06 | N#Cc1c(N)nc(-c2ccsc2)c2c1-c1ccccc1C2=O [Compound 73] | – |
| 7.28 | 14.7 | 5.7 | COc1cccc(-c2nc(N)c(C#N)c3c2C(=O)c2ccccc2-3)c1 [Compound 74] | – |
| 33.6 | 229 | 29 | CN(C)CCOC(=O)c1c(N)nc(-c2ccccc2)c2c1-c1ccccc1C2=O [Compound 81, 9H-indeno[2,1-c]pyridine-4-carboxylic acid, 3-amino-1-phenyl-9-oxo-, 2-dimethylamino-ethyl ester] | – |
| 29.6 | 20.2 | 1.36 | CN1CCCC1COC(=O)c1c(N)nc(-c2ccco2)c2c1-c1ccccc1C2=O (centres unmarked) [Compound 82, 9H-indeno[2,1-c]pyridine-4-carboxylic acid, 3-amino-1-furan-2-yl-9-oxo-, 1-methyl-pyrrolidin-2-ylmethyl ester] | – |
| 27.4 | 174 | 24.7 | Nc1nc(-c2ccccc2)c2c(c1C(=O)OCCCN1CCOCC1)-c1ccccc1C2=O [Compound 84] | – |
| 11.2 | 5.85 | 1.12 | N#Cc1c(N)nc(-c2ccco2)c2c1-c1ccccc1C2O (centres unmarked) [Compound 89] | – |
| 14.7 | 208 | 22.1 | Nc1nc(-c2ccccc2)c2c(c1C(=O)OCCN1CCOCC1)-c1ccccc1C2=O [Compound 91] | – |
| 32.9 | 38.8 | 13.9 | CC(COC(=O)c1c(N)nc(-c2ccccc2)c2c1-c1ccccc1C2=O)CN(C)C (centres unmarked) [Compound 92] | – |
